Reference: patent US20040116336A1, “Peptide derivatives” (priority 2002, published 2004)
Where two headings read alike, the source gives them in different places. Starred links: 1 amine or outer side, 2 acyl side, 3 side chain; linkers in the order of their positions; H or OH if unused. Non-standard residues stand in square brackets, D forms with d. Residues, ends and D or L forms follow the SMILES beside them. No end group written: not given here. *: point of attachment. X1 = O=C([C@H](Cc1ccc2ccc3cccc4ccc1c2c34)N[*:1])[*:2]; Phe(4-Cl) = N[C@@H](Cc1ccc(Cl)cc1)C(=O)O; 2Nal = N[C@@H](Cc1ccc2ccccc2c1)C(=O)O; Lys(Me2) = CN(C)CCCC[C@H](N)C(=O)O; Cha = N[C@@H](CC1CCCCC1)C(=O)O; pGlu = O=C1CC[C@@H](C(=O)O)N1; Morpholide = C1CN(*)CCO1; NMeA = CN[C@@H](C)C(=O)O; Dap = NC[C@H](N)C(=O)O; Hexanoyl = CCCCCC(=O)*

What was measured:
APJ [1] = target: T1, APJ (Homo sapiens, UniProt P35414); assay: Inhibitory activity on forskolin-stimulated cAMP production in CHO-A10 clone 6 cells; assay type: cell-based
T1 construct: expressed in transfected cells; host or cells: CHO (CHO-A10; clone 6 for the cAMP assay)
T1 sequence (P35414 1-380): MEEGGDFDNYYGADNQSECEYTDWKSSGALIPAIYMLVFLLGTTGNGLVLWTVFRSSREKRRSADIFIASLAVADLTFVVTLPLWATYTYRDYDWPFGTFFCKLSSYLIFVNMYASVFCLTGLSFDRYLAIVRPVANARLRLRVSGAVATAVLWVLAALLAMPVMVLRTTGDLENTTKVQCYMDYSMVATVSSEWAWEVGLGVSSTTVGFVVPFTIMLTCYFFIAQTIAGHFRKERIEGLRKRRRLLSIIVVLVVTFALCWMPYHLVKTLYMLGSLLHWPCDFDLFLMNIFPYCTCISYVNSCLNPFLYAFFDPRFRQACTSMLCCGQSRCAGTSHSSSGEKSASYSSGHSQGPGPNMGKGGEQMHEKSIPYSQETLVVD
Procedure: Measurement of an Inhibitory Activity on Forskolin-Stimulated cAMP Production
Hanks' balanced salt solution (HBSS) containing 0.2 mM 3-isobutyl-1-methylxanthine (IBMX) and 0.05% bovine serum albumin was prepared as an assay buffer, and each well was washed twice with 500 μl assay buffer and pre-incubated at 37° C. for 30 minutes. Further, each well was washed once with 500 μl assay buffer, and a sample dissolved in the assay buffer containing 1 μM forskolin was added at a volume of 500 μl/well and incubated at 37° C. for 30 minutes. Wells incubated with the assay buffer not containing forskolin were prepared in the same manner in order to determine the basal level of cellular cAMP production, while wells incubated with the assay buffer containing forskolin were also prepared in order to determine the maximum level of cAMP production stimulated with forskolin. After incubation was finished, each well was washed once with 500 μl assay buffer, and 500 μl lysis buffer 1B attached to a cAMP EIA system from Amersham was added to each well, to extract cAMP. According to the protocol of the kit, 100 μl of each extract was used to determine the level of cAMP. For the inhibitory activity of the sample on cAMP production, the difference (inhibited cAMP production) between the maximum level and the level of cAMP in the sample-containing wells was determined, and the inhibitory activity was expressed as percentage relative to the increased level of cAMP production stimulated with forskolin (that is, the difference between the maximum level and basal level), and from this dose-reaction curve, the EC50 was determined.

APJ [2] = target: T1, APJ; assay: Receptor binding assay-2 (compound in Reference Example 2 used)
Procedure: This product was mixed with an equal volume of an assay buffer (50 mM Tris-HCl/pH 7.5, 5 mM EDTA, 0.5 mM PMSF, 20 μg/ml leupeptin, 0.1 μg/ml pepstatin A, 4 μg/ml E-64 (Peptide Research Laboratory, Co.), 0.1% bovine serum albumin) and stored at −30° C. before use.
CHO-A10 cells were cultured, recovered with PBS containing 5 mM EDTA from a culture vessel, and suspended in the above-mentioned assay buffer not containing bovine serum albumin. The cells were homogenized 3 times at 12,000 rpm for 15 seconds by a Polytron homogenizer (manufactured by Kinematica Inc.) and then centrifuged (1000×g, 4° C., 10 minutes), and the supernatant was recovered. The precipitates were subjected again to the same procedure as above, and the respective supernatants were combined and centrifuged at 100,000×g, 4° C. for 1 hour, to recover precipitates (membrane fraction). The membrane fraction was suspended again in a small amount of the buffer, homogenized with a Teflon homogenizer and stored at −80° C. before use.
Binding assay was carried out under the following conditions. […] Measurement of non-specific binding was carried out using a well containing 1 μM unlabeled compound in place of the test sample. After the incubation was finished, a cell harvester (Packard) adapted to 96 wells and a filter unit (GF/C, Packard) were used for separation thereby capturing the membrane fraction on the filter. After the filter was sufficiently dried, Microcinti 0 (Packard) was added thereto, and using Top Count (Packard), the amount of the labeled material captured together with the membrane fraction on the filter was measured.

[3] = compound in Reference Example 2 used as ligand, read-out: IC50

Compound	EC50 (APJ [1]; read-out: EC50)	IC50 (APJ [2]; [3])	EC50 (APJ [1])	IC50 (APJ [2])
CSCC[C@H](NC(=O)[C@@H]1CCCN1C(=O)CNC(=O)[C@H](CCCCN)NC(=O)[C@H](Cc1c[nH]cn1)NC(=O)[C@H](CO)NC(=O)[C@H](CC(C)C)NC(=O)[C@H](CCCNC(=N)N)NC(=O)[C@@H]1CCCN1C(=O)[C@@H](N)CCCNC(=N)N)C(=O)N1CCC[C@H]1C(=O)N[C@@H](CC1CCCCC1)C(=O)O [Compound in Ex. 49]	0.71 nM	3.5 nM		
CSCC[C@H](NC(=O)[C@@H]1CCCN1C(=O)CNC(=O)[C@H](CCCNC(=N)N)NC(=O)[C@H](CCCNC(=N)N)NC(=O)[C@H](Cc1ccccc1)NC(=O)[C@H](CC(C)C)NC(=O)[C@H](CCCNC(=N)N)NC(=O)[C@@H]1CCCN1C(=O)[C@H](CCCNC(=N)N)NC(=O)[C@@H]1CCC(=O)N1)C(=O)N1CCC[C@H]1C(=O)N[C@@H](Cc1ccccc1)C(=O)O [Compound in Ex. 42] ([pGlu]RPRLFRRGPMPF-OH)	0.15 nM	0.81 nM		
RPRLFARGPMPF [Compound in Ex. 31]	0.14 nM	0.27 nM		
CSCC[C@H](NC(=O)[C@@H]1CCCN1C(=O)CNC(=O)[C@H](CCCCN)NC(=O)[C@H](Cc1c[nH]cn1)NC(=O)[C@H](CO)NC(=O)[C@H](CC(C)C)NC(=O)[C@H](CCCNC(=N)N)NC(=O)[C@@H]1CCCN1C(=O)[C@@H](N)CCCNC(=N)N)C(=O)N[C@@H](Cc1ccc2ccccc2c1)C(=O)O [Compound in Ex. 40] (H-RPRLSHKGPM[2Nal]-OH)	0.37 nM	0.61 nM		
CSCC[C@H](NC(=O)[C@@H]1CCCN1C(=O)CNC(=O)[C@H](CCCCN)NC(=O)[C@H](Cc1c[nH]cn1)NC(=O)[C@H](CO)NC(=O)[C@H](CC(C)C)NC(=O)[C@H](CCCNC(=N)N)NC(=O)[C@@H]1CCCN1C(=O)[C@@H](N)CCCNC(=N)N)C(=O)N[C@@H](Cc1ccc(Cl)cc1)C(=O)O [Compound in Ex. 28] (H-RPRLSHKGPM[Phe(4-Cl)]-OH; N-terminus and C-terminus assumed)	0.16 nM	0.17 nM		
CC(C)C[C@H](NC(=O)[C@H](CCCNC(=N)N)NC(=O)[C@@H]1CCCN1C(=O)[C@@H](N)CCCNC(=N)N)C(=O)N[C@@H](CO)C(=O)N[C@@H](C)C(=O)N[C@@H](CCCNC(=N)N)C(=O)NCC(=O)N1CCC[C@H]1C(=O)N[C@@H](CC1CCCCC1)C(=O)N[C@@H](Cc1ccc2ccc3cccc4ccc1c2c34)C(=O)O [Compound in Ex. 60] (H-RPRLSARGP[Cha][X1]-OH)			1.1 nM	0.8 nM
CSCC[C@H](NC(=O)[C@@H]1CCCN1C(=O)CNC(=O)[C@H](CCCCN)NC(=O)[C@H](Cc1c[nH]cn1)NC(=O)[C@H](CO)NC(=O)[C@H](CC(C)C)NC(=O)[C@H](CCCNC(=N)N)NC(=O)[C@@H]1CCCN1C(=O)[C@@H](N)CCCNC(=N)N)C(=O)N1CCC[C@H]1C(=O)N[C@@H](Cc1ccc2ccccc2c1)C(=O)O [Compound in Ex. 32]	0.1 nM	0.35 nM		
CC(C)C[C@H](NC(=O)[C@H](CCCNC(=N)N)NC(=O)[C@@H]1CCCN1C(=O)[C@H](CCCNC(=N)N)NC(=O)[C@H](CCC(N)=O)NC(=O)[C@H](CCCNC(=N)N)NC(=O)[C@@H](N)CCCNC(=N)N)C(=O)N[C@@H](CO)C(=O)N[C@@H](C)C(=O)N[C@@H](CCCNC(=N)N)C(=O)NCC(=O)N(C)C [Compound in Ex. 51] (H-RRQRPRLSARG-NMe2)	0.49 nM	0.16 nM		
CSCC[C@H](NC(=O)[C@@H]1CCCN1C(=O)CNC(=O)[C@H](CCCCN)NC(=O)[C@H](CC(C)C)NC(=O)[C@H](CO)NC(=O)[C@H](CC(C)C)NC(=O)[C@H](CCCNC(=N)N)NC(=O)[C@@H]1CCCN1C(=O)[C@H](CCCNC(=N)N)NC(=O)[C@@H]1CCC(=O)N1)C(=O)N1CCC[C@H]1C(=O)N[C@@H](Cc1ccccc1)C(=O)O [Compound in Ex. 38]	0.16 nM	0.59 nM		
CC(C)C[C@H](NC(=O)[C@H](CCCNC(=N)N)NC(=O)[C@@H]1CCCN1C(=O)[C@@H](N)CCCNC(=N)N)C(=O)N[C@@H](CO)C(=O)N[C@@H](C)C(=O)N[C@@H](CCCNC(=N)N)C(=O)NCC(=O)N1CCC[C@H]1C(=O)N[C@@H](CC1CCCCC1)C(=O)N1CCC[C@H]1C(=O)N[C@@H](Cc1ccc2ccc3cccc4ccc1c2c34)C(=O)O [Compound in Ex. 61] (H-RPRLSARGP[Cha]P[X1]-OH; N-terminus and C-terminus assumed)			2.2 nM	0.56 nM
RPRLSARGPM [Compound in Ex. 27]		0.11 nM		

Continued, in another order:

EC50 (APJ [1]; read-out: EC50)	IC50 (APJ [2]; [3])	Compound	EC50 (APJ [1])	IC50 (APJ [2])
0.19 nM	0.29 nM	CSCC[C@H](NC(=O)CNC(=O)CNC(=O)[C@H](CCCNC(=N)N)NC(=O)[C@H](C)NC(=O)[C@H](CO)NC(=O)[C@H](CC(C)C)NC(=O)[C@H](CCCNC(=N)N)NC(=O)[C@@H]1CCCN1C(=O)[C@@H](N)CCCNC(=N)N)C(=O)N1CCC[C@H]1C(=O)N[C@@H](Cc1ccc(Cl)cc1)C(=O)O [Compound in Ex. 54] (H-RPRLSARGGMP[Phe(4-Cl)]-OH; N-terminus and C-terminus assumed)		
0.32 nM	0.18 nM	CSCC[C@H](NC(=O)[C@@H]1CCCN1C(=O)CNC(=O)[C@H](CCCNC(=N)N)NC(=O)[C@H](C)NC(=O)[C@H](CO)NC(=O)[C@H](CC(C)C)NC(=O)[C@H](CCCNC(=N)N)NC(=O)[C@@H]1CCCN1C(=O)[C@H](CCCNC(=N)N)NC(=O)[C@H](CCC(N)=O)NC(=O)[C@H](CCCNC(=N)N)NC(=O)[C@@H](N)CCCNC(=N)N)C(=O)N1CCC[C@H]1C(=O)N[C@@H](Cc1ccc(Cl)cc1)C(N)=O [Compound in Ex. 59]		
1.1 nM	0.45 nM	CCCCCC(=O)NC[C@H](NC(=O)[C@H](CO)NC(=O)[C@H](CC(C)C)NC(=O)[C@H](CCCNC(=N)N)NC(=O)[C@@H]1CCCN1C(=O)[C@@H](N)CCCNC(=N)N)C(=O)N[C@@H](CCCNC(=N)N)C(=O)NCC(=O)N1CCC[C@H]1C(=O)N[C@@H](CC1CCCCC1)C(=O)N1CCC[C@H]1C(=O)N[C@@H](Cc1ccc(Cl)cc1)C(=O)O [Compound in Ex. 67, Arg-Pro-Arg-Leu-Ser-Dap(C6)-Arg-Gly-Pro-Cha-Pro-Phe(Cl)] (H-RPRLS[Dap](Hexanoyl)RGP[Cha]P[Phe(4-Cl)]-OH; N-terminus and C-terminus assumed)		
1.2 nM	0.26 nM	CC(C)C[C@H](NC(=O)[C@H](CCCNC(=N)N)NC(=O)[C@@H]1CCCN1C(=O)[C@H](CCCNC(=N)N)NC(=O)[C@H](CCC(N)=O)NC(=O)[C@H](CCCNC(=N)N)NC(=O)[C@@H](N)CCCNC(=N)N)C(=O)N[C@@H](CO)C(=O)N[C@@H](C)C(=O)N[C@@H](CCCNC(=N)N)C(=O)NCC(=O)N1CCOCC1 [Compound in Ex. 52] (H-RRQRPRLSARG-Morpholide; N-terminus assumed)		
0.27 nM	0.09 nM	CSCC[C@H](NC(=O)[C@H](C)N(C)C(=O)CNC(=O)[C@H](CCCNC(=N)N)NC(=O)[C@H](C)NC(=O)[C@H](CO)NC(=O)[C@H](CC(C)C)NC(=O)[C@H](CCCNC(=N)N)NC(=O)[C@@H]1CCCN1C(=O)[C@@H](N)CCCNC(=N)N)C(=O)N1CCC[C@H]1C(=O)N[C@@H](Cc1ccc(Cl)cc1)C(=O)O [Compound in Ex. 55] (H-RPRLSARG[NMeA]MP[Phe(4-Cl)]-OH; N-terminus and C-terminus assumed)		
0.38 nM		CSCC[C@H](NC(=O)[C@@H]1CCCN1C(=O)CNC(=O)[C@H](CCCCN(C)C)NC(=O)[C@H](C)NC(=O)[C@H](CO)NC(=O)[C@H](CC(C)C)NC(=O)[C@H](CCCNC(=N)N)NC(=O)[C@@H]1CCCN1C(=O)[C@@H](N)CCCNC(=N)N)C(=O)N1CCC[C@H]1C(=O)N[C@@H](Cc1ccccc1)C(=O)O [Compound in Ex. 64, Arg-Pro-Arg-Leu-Ser-Ala-Lys(Me)2-Gly-Pro-Met-Pro-Phe] (H-RPRLSA[Lys(Me2)]GPMPF-OH; N-terminus and C-terminus assumed)		
